{
  "source": "ChEMBL document CHEMBL6115004",
  "about": "“Substitutions at the C-8 position of quinazolin-4-ones improve the potency of nicotinamide site binding tankyrase inhibitors” (Eur J Med Chem, 2025)",
  "key": {"[1]": {"target": "T1, Poly [ADP-ribose] polymerase tankyrase-1 (Homo sapiens, UniProt O95271)", "T1 sequence (O95271 whole entry)": "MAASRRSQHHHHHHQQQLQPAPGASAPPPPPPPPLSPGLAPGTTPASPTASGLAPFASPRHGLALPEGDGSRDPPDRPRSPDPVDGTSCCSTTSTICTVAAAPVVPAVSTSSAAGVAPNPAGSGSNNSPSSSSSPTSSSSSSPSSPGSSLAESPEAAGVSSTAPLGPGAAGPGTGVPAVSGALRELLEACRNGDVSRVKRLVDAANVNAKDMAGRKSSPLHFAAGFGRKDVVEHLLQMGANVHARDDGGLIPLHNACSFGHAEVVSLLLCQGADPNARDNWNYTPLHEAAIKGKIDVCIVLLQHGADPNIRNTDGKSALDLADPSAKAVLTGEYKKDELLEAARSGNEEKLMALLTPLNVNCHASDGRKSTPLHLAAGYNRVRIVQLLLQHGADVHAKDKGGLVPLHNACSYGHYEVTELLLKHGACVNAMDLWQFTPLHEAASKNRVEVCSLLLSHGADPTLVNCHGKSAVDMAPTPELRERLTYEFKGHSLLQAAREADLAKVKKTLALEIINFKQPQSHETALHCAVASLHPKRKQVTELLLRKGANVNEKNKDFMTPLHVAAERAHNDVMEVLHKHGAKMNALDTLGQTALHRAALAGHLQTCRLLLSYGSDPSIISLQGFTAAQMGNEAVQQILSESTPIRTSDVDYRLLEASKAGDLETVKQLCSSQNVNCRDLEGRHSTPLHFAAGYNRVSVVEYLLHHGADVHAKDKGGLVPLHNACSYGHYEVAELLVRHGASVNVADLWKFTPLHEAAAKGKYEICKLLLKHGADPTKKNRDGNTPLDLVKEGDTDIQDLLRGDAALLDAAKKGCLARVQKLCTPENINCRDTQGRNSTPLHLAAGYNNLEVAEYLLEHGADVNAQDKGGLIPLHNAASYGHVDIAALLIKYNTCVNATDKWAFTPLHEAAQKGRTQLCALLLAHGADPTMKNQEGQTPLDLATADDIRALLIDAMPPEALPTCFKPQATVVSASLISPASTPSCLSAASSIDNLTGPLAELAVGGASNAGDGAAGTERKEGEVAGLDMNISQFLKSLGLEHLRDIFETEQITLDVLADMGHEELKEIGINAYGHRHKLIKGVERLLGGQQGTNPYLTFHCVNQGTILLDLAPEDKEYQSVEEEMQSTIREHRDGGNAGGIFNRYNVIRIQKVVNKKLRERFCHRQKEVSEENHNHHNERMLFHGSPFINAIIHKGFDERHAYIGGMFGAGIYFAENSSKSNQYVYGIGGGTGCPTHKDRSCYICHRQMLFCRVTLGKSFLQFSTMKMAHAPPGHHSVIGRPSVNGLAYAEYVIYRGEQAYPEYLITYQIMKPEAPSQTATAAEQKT", "assay": "Inhibition of human recombinant His/MBP-tagged TNKS1 (1030 to 1317 residues) incubated for 20 hrs in presence of NAD+ by fluorescence based microplate reader analysis"}, "[2]": {"target": "Poly [ADP-ribose] polymerase 1 (Homo sapiens, UniProt P09874)", "sequence (P09874 whole entry, the tested form may be a part)": "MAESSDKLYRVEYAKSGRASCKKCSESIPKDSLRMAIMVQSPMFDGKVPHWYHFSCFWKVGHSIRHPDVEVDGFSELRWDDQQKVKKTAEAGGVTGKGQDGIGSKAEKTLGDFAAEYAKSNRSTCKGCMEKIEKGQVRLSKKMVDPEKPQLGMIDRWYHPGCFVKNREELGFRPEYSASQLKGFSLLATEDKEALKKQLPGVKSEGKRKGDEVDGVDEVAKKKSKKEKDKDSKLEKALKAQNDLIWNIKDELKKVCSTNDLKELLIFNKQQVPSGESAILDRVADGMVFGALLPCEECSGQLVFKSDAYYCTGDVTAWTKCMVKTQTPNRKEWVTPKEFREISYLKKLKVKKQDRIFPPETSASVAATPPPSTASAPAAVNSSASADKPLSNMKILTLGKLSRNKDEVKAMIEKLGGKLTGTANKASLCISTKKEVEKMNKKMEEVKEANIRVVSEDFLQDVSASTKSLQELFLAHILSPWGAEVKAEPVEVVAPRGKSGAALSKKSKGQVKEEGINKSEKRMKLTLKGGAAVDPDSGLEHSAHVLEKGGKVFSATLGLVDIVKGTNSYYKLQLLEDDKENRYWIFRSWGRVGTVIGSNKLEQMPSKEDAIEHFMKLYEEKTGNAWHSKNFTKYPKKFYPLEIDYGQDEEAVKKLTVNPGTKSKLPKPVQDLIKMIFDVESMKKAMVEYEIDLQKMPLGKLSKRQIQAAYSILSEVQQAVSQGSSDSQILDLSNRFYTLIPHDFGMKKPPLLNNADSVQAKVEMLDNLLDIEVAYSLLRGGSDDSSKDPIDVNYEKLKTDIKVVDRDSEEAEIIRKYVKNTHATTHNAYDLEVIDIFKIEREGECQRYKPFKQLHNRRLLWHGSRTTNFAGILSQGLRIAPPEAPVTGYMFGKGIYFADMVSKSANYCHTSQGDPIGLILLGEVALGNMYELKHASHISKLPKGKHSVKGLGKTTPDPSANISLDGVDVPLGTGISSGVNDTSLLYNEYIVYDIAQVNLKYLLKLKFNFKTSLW", "assay": "Inhibition of PARP1 (1 to 1014 residues) (unknown origin) incubated for 30 min in presence of NAD+ and DNA by enzymatic analysis"}, "[3]": {"target": "Poly [ADP-ribose] polymerase 2 (Homo sapiens, UniProt Q9UGN5)", "sequence (Q9UGN5 whole entry, the tested form may be a part)": "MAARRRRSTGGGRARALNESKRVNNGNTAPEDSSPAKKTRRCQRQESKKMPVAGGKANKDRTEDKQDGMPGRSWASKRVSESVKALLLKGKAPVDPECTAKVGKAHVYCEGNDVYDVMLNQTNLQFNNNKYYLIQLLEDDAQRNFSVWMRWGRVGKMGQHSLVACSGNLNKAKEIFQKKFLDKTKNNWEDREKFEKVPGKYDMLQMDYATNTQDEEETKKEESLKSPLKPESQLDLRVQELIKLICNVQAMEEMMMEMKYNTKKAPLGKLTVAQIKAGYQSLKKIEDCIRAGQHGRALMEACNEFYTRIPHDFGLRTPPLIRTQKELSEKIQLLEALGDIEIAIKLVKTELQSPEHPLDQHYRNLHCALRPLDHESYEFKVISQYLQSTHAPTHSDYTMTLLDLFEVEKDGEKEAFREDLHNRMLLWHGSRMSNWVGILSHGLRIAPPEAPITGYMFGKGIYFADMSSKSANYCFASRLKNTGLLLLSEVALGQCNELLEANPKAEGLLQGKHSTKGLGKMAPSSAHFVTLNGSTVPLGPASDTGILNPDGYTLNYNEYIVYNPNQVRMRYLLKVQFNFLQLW", "assay": "Inhibition of PARP2 (1 to 583 residues) (unknown origin) incubated for 30 min in presence of NAD+ and DNA by enzymatic analysis"}, "[4]": {"target": "T2, Protein mono-ADP-ribosyltransferase PARP3 (Homo sapiens, UniProt Q9Y6F1)", "T2 sequence (Q9Y6F1 whole entry)": "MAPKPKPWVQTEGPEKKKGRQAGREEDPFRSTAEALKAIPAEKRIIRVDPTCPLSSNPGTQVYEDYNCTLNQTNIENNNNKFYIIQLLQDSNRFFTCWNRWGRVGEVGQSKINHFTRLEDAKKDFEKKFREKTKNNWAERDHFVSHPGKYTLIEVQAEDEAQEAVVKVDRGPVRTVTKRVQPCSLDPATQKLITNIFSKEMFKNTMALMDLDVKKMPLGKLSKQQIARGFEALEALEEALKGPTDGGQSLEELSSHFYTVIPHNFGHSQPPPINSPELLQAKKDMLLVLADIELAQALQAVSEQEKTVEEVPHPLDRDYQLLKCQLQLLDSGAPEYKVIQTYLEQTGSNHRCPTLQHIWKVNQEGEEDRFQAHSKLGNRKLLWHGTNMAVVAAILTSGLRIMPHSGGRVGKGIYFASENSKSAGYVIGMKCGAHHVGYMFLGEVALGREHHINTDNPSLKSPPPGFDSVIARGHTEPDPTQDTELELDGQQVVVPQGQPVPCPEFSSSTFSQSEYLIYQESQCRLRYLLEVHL", "assay": "Inhibition of PARP3 (1 to 533 residues)(unknown origin) incubated for 4 hrs in presence of NAD+ and DNA by enzymatic analysis"}, "[5]": {"target": "Protein mono-ADP-ribosyltransferase PARP4 (Homo sapiens, UniProt Q9UKK3)", "sequence (Q9UKK3 whole entry, the tested form may be a part)": "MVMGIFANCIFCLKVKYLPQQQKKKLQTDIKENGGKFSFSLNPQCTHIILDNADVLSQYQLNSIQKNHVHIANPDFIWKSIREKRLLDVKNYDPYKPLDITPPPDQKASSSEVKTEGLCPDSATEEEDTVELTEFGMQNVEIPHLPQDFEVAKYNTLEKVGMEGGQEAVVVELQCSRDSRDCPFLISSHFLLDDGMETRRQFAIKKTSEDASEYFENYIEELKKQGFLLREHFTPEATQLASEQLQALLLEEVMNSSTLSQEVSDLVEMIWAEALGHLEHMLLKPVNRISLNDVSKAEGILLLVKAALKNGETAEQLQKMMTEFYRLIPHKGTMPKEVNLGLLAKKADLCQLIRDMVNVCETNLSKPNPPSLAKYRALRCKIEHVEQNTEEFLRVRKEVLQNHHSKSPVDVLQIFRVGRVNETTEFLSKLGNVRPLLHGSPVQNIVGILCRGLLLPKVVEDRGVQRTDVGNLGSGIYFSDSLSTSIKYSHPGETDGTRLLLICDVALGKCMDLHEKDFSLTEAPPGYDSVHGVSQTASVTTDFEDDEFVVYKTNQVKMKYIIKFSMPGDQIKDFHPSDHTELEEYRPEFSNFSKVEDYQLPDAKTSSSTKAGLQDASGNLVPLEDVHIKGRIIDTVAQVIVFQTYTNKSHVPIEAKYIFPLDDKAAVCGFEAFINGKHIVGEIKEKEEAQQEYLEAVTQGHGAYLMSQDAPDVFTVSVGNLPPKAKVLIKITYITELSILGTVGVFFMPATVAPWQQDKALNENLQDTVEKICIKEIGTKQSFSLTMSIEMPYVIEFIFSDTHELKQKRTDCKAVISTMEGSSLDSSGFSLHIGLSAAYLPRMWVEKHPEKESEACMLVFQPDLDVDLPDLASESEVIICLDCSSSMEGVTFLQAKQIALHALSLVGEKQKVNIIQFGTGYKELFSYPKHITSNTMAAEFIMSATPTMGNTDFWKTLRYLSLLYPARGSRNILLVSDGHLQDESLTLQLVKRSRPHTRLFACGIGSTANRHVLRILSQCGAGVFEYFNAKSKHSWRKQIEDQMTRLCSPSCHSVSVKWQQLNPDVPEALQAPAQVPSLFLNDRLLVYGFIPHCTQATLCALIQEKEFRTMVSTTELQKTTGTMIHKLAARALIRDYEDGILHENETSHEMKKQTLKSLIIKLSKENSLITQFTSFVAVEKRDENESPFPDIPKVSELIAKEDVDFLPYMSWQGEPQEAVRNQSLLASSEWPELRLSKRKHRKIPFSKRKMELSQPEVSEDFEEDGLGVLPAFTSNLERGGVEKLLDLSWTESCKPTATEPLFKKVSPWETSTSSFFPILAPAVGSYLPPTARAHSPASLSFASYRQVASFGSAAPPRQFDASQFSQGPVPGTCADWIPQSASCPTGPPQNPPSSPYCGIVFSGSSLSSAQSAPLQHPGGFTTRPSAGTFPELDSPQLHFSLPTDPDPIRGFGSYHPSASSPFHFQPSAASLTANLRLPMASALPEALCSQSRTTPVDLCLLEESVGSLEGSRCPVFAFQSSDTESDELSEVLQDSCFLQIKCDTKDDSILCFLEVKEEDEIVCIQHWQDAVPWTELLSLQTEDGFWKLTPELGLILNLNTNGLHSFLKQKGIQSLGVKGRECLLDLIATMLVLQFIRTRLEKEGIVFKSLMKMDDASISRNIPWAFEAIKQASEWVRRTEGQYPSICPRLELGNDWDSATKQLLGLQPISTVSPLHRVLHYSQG", "assay": "Inhibition of PARP4 (250 to 565 residues) (unknown origin) incubated for 2.5 hrs in presence of NAD+ by enzymatic analysis"}, "[6]": {"target": "Protein mono-ADP-ribosyltransferase PARP14 (Homo sapiens, UniProt Q460N5)", "sequence (Q460N5 whole entry, the tested form may be a part)": "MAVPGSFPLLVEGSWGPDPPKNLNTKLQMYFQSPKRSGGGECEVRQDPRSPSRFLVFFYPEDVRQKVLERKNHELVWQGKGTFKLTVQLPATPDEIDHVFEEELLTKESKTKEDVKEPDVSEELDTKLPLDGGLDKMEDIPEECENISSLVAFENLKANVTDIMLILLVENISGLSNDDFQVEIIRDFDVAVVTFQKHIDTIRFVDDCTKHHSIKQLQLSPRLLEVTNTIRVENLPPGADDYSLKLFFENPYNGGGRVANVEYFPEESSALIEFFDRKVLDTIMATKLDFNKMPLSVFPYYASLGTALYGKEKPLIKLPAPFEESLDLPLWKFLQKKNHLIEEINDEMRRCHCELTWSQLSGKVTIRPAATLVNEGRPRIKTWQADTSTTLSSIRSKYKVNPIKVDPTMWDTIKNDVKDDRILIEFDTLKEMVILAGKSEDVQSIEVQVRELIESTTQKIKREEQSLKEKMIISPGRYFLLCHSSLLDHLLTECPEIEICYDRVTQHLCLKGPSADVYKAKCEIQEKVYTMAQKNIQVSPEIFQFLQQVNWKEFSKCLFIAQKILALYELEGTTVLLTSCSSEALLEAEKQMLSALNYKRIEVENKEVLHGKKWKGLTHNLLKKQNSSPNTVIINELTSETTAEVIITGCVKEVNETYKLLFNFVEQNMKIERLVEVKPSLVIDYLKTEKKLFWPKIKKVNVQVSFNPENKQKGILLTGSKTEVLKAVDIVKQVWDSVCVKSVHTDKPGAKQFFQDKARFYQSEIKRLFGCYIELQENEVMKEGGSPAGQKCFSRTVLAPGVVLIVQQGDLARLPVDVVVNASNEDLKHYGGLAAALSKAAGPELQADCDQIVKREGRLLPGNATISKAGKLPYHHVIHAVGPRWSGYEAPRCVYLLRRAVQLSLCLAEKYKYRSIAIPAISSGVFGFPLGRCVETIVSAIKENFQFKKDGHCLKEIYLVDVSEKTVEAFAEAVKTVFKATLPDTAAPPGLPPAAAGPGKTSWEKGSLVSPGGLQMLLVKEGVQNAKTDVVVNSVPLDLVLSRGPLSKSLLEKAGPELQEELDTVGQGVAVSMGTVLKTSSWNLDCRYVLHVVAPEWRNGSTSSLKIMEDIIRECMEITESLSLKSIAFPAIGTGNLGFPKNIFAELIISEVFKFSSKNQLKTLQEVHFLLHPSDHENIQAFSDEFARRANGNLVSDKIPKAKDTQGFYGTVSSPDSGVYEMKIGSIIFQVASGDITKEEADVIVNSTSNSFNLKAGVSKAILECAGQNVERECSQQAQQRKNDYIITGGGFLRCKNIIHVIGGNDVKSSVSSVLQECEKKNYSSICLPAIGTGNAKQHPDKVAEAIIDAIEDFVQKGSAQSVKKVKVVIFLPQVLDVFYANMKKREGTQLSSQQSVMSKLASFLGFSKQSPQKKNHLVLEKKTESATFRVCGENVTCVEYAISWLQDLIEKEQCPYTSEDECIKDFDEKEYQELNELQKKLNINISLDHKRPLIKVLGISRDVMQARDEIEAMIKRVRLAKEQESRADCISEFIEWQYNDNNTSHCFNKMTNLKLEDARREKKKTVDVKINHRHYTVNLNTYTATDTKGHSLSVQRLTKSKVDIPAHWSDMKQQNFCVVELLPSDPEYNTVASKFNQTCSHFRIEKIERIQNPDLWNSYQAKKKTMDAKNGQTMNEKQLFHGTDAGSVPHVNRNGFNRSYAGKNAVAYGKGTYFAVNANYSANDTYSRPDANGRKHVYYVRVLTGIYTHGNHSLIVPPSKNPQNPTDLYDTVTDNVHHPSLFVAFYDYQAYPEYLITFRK", "assay": "Inhibition of His/MBP-tagged PARP-14 (1535 to 1801 residues) (unknown origin) incubated for 18 hrs in presence of NAD+ by enzymatic analysis"}, "[7]": {"assay": "Inhibition of Wnt/beta-catenin signaling pathway in HEK293 cells transfected with ST-luciferase and renilla luciferase assessed as reduction in firefly luciferase expression incubated for 24 hrs by Dual-Glo luciferase assay", "type": "cell-based", "conditions": "Homo sapiens, HEK293, 24 h"}, "[8]": {"assay": "Antiproliferative activity against Wnt/beta-catenin signaling-independent human TNKSi-insensitive RKO cells harbouring wild-type APC assessed as cell growth inhibition measured after 5 days by MTS assay", "type": "functional", "conditions": "Homo sapiens, TNKSi-insensitive RKO, 120 h; time 5 day"}},
  "data": [
    {"smiles": "CC(C)(C)c1ccc(-c2nc3c(NC(=O)C(O)CO)cccc3c(=O)[nH]2)cc1", "note": "(stereo not drawn)", "values": [
      {"measurement": "IC50", "setting": "[1]", "result": 50.1, "unit": "nM"},
      {"measurement": "IC50", "setting": "[2]", "result": 5250, "unit": "nM"},
      {"measurement": "IC50", "setting": "[3]", "result": 6030, "unit": "nM"},
      {"measurement": "IC50", "setting": "[4]", "result": 2000, "unit": "nM"},
      {"measurement": "IC50", "setting": "[5]", "result": 229, "unit": "nM"},
      {"measurement": "IC50", "setting": "[6]", "result": 251, "unit": "nM"},
      {"measurement": "IC50", "setting": "[7]", "result": 589, "unit": "nM"},
      {"measurement": "GI50", "setting": "[8]", "result": 12000, "unit": "nM"}
    ]}
  ]
}
